Measurements as given in US20130184223A1, “METHODS AND COMPOSITIONS RELATED TO MODULATING AUTOPHAGY” (UNIVERSITY OF ROCHESTER, priority 2010, published 2013).
Read-outs that look alike come from different tables or passages of the source.

Tests used:
[1] = tested on: YAMC, mp53, Ras and mp53/Ras transformed cells; test: Immunoblot of autophagy markers p62 and LC3 after drug treatment; assay type: cell-based, murine; conditions: 10 mM 3-methyladenine (3MA) for 24 hrs
Procedure: To identify if the p62 degradation and LC3 conversion is specifically due to autophagy YAMC, mp53, Ras, and mp53/Ras cells were treated with 3-methyladenine, a specific pharmacologic inhibitor of autophagosome formation (FIG. 4.3).
YAMC, vector, mp53, Ras, and mp53/Ras cells were cultured for two days at 39 C in RPMI with 10% FBS medium and gentamicin in collagen-I coated 15 cm dishes. […] Protein concentration was quantified using Bradford reagent (BioRad) and a Genesys 1 0UV spectrophotometer (Spectronic Unicam). […] Proteins were detected with primary antibodies at the following dilutions in PBST with 5% milk at 4 C overnight: HA-tagged Plac8 —1:1000 dilution of HA antibody (Roche), —Tubulin—1:1000 of—Tubulin antibody (Santa Cruz), Plac8 —1:500 of Plac8 antibody (PRF&L, Inc.), Lamp2 —1:5000 of Lamp2 antibody (Abcam), Rab7 —1:1000 Rab7 antibody (Sigma), LC3 —1:2000 of LC3B antibody (Sigma), RhoA—1:1000 RhoA antibody (Santa Cruz), Cathepsin D—1:1000 Cathepsin D antibody (Santa Cruz), p62 —1:5000 of p62 antibody (PROGEN), 3× Flag-tagged proteins—1:1000 dilution of 3× Flag antibody and 1:2500 of HRP-conjugated 3× Flag antibody (Sigma), Rab5a—1:1000 dilution of Rab5 antibody (Abcam), phosphop70S6K (Thr389)—1:1000 dilution of phospho-p70S6K (Thr389) antibody (Cell Signaling), p70S6K—1:1000 dilution of p70S6K antibody (Cell Signaling), Atg12—1:250 Atg12 antibody (Sigma). […]

[2] = tested on: lymphoma, colon cancer, lung cancer, and pancreatic cancer cells; conditions: prior studies referred to in the text, cited from earlier work
[3] = tested on: mp53/Ras transformed cells and CAPAN-2 cells; test: Immunocompromised mouse tumorigenicity assay, cells expressing autophagy modulators; assay type: in vivo; conditions: cells expressing the protein or shRNA vs vector control; 5×10^5 cells per injection; 4 weeks mp53/Ras, 5 weeks CAPAN-2
Procedure: To determine whether cooperative up-regulation of autophagy is required for tumorigenesis Atg12, a gene involved in autophagosome formation, was knocked-down using two independent constructs in mp53/RasV12 and Capan-2 cells. In addition, a genetic rescue experiment was performed by introducing a shRNA resistant form of ATG12 into these cell backgrounds to test for ATG12 specificity of the observed effects. Tumor formation was inhibited by Atg12 KD in both mp53/Ras and CAPAN-2 cell lines and was rescued by expression of the exogenous shRNA resistant Atg12 (FIG. 4.5a, 4.5c).
Cells were cultured on 15 cm dishes for two days without selective antibiotics at 39 C for mp53/Ras cells and at 37 C for HT-29, CAPAN-2, PANC-1, and 5 Panc10.05. Cells were plated at the following densities: mp53/Ras—7.5×10^5, HT-29 —1.5×10^6, CAPAN-2 —4×10^6, PANC—4×10^6, and PANC 10.05—2×10^6. Cells were trypsinized, counted and re-suspended in RPMI medium lacking supplements for mp53/Ras, CAPAN-2, and Panc10.05, and DMEM lacking supplements for HT-29 and PANC-1 at a density of 5×10^5/100 ul for mp53/Ras and CAPAN-2 cells, 1.25×10^5/100 ul for HT-29 cells, 5×10^6/100 ul for PANC-1, 2×10^6/100 ul for Panc10.05. […] Tumor volume was measured every week for 4 weeks for mp53/Ras and HT-29 cells, 5 weeks for CAPAN-2 cells, and 6 weeks for PANC-1.

[4] = tested on: mp53/Ras transformed cells and CAPAN-2 cells; test: Immunoblot of p62 and LC3 in cells expressing autophagy modulators; assay type: cell-based; conditions: cells expressing the protein vs vector control
Text: Thus, the effects of Plac8 KD on both tumor formation and autophagy can be suppressed by constitutive activation of Rab7.
Moreover, the molecular machinery employed in autophagosomal/lysosomal fusion, such as Rab7, is required for endosomal/lysosomal fusion, which is also required for tumor formation in some cancers.
To determine if the Plac8 KD-induced loss of tumor formation is specifically due to a loss of autophagy completion, Atg12, a gene required for autophagosomal formation, was overexpressed in Plac8 KD cells.
YAMC, vector, mp53, Ras, and mp53/Ras cells were cultured for two days at 39 C in RPMI with 10% FBS medium and gentamicin in collagen-I coated 15 cm dishes. HT-29, CAPAN-2, PANC-1 and Panc 10.05 cells were cultured for two days at 37 C in maintenance media without selective antibiotics on 15 cm dishes. […] Protein concentration was quantified using Bradford reagent (BioRad) and a Genesys 1 0UV spectrophotometer (Spectronic Unicam). […]

[5] = tested on: mp53/Ras transformed cells; test: Lamp2/GFP-LC3 colocalization (autophagosomal/lysosomal fusion), mp53/Ras cells; assay type: cell-based, murine; conditions: nutrient starved in HBSS 15 minutes
Text: The Plac8 KD dependent accumulation of autophagosomes and autophagosomal biochemical markers can be due to an induction of autophagosome formation (on-rate) or inhibition in autophagosome clearance via autophagosomal/lysosomal fusion (off-rate). […] To explore if Plac8 is required for autophagosomal/lysosmal fusion a GFP-LC3 fusion protein was expressed to label autophagosomes and immunostained for Lamp2, a lysosomal marker. Co-localization of GFP-LC3 and Lamp2 indicates the formation of an autolysosome, or the completion of autophagosomal/lysosomal fusion.
Cells were plated onto collagen-1 coated 22 mm glass coverslips (BD Biosciences) in 6 well plates at 5×10^4 cells per well. […] Cells were analyzed and imaged using a Leica inverted confocal microscope (Lieca).
GFP-LC3 expressing cells were fixed, stained, mounted, and imaged by the methods described in previous section titled Immunofluorescent staining of cells. To quantify GFP-LC3 punctae images were analyzed using the ImageJ plug-in Watershed Segmentation. […] The resulting image was quantified by measuring the mean green and blue signals per image and dividing the blue signal by the total green signal to get the amount of punctae per total GFP-LC3 expressed in the cell. […] To quantify GFP-LC3 colocalization images were analyzed using the ImageJ plug-in Colocalization Finder. […]

## Cn1cnc(N)c2ncnc1-2 [3-methyladenine]
[1]
  p62 and LC3 protein levels: p62 and LC3-I increase
[1]; listed as 3MA
  p62 and LC3 protein levels: Accumulation of p62 and LC3

## CO/C1=C\C(C)=C\[C@@H](C)[C@@H](O)[C@@H](C)C/C(C)=C/C=C/[C@H](OC)[C@@H]([C@@H](C)[C@@H](O)[C@H](C)[C@@]2(O)C[C@@H](O)[C@H](C)[C@@H](C(C)C)O2)OC1=O [Bafilomycin A1]
[2]
  tumor formation / tumor growth: inhibits tumor growth
[2]; listed as bafilomycin A1
  tumor formation / tumor growth: tumor inhibitory
[2]; listed as baflomycin A1
  tumor formation / tumor growth: effective at inhibiting tumor formation

## Rab7 DA: 3× Flag-tagged Rab7 Q67L dominant active mutant, activates autophagosomal/lysosomal fusion
[3]
  tumor formation in nude mice: inhibits tumor formation

## Rab7 DN: 3× Flag-tagged Rab7 T22N dominant negative mutant, inhibits autophagosomal/lysosomal fusion
[3]
  tumor formation in nude mice: inhibition of tumor formation
[4]
  p62 and LC3 protein levels: accumulation of p62 and LC3
[5]
  inhibition of GFP-LC3/Lamp2 colocalization: 74%
